This note sets out measurements from patent US20260137774A1, “Hepatitis B Virus Receptor OATP and Use Thereof” (priority 2022, published 2026).

For one data set, the system named is HepG2 cells. Put plainly: Drug susceptibility test of selection antibiotics on HepG2 cells. Type of data set: cell-based.
The subject of another data set is Hela cells. As to the kind of experiment: Drug susceptibility test of selection antibiotics on HeLa cells. It counts as cell-based.
For a further data set, the target named is T1, human OATP1B1 (hOATP1B1) (Homo sapiens, UniProt Q9Y6L6).
T1 sequence (Q9Y6L6 1-691): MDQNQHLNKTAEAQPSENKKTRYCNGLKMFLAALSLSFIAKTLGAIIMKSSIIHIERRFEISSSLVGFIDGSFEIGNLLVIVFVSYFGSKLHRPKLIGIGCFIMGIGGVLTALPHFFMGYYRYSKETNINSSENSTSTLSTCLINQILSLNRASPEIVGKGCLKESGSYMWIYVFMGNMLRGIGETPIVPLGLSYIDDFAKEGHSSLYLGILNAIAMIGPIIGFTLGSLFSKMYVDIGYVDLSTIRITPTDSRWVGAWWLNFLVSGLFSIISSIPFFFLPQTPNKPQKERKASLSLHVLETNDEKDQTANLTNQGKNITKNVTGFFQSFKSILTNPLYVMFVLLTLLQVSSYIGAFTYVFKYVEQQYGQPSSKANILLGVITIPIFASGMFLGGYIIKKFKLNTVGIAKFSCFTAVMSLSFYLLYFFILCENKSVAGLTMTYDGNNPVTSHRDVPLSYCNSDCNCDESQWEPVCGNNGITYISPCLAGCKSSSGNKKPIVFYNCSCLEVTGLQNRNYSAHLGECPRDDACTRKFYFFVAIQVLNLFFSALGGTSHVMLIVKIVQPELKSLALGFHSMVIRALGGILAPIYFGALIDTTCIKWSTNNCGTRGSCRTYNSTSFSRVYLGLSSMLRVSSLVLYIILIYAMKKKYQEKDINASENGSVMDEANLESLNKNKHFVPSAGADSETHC
To be noted: pH 7.4.

The next data set addresses T2, human OATP1B3 (hOATP1B3) (Homo sapiens, UniProt Q9NPD5).
T2 sequence (Q9NPD5 1-702): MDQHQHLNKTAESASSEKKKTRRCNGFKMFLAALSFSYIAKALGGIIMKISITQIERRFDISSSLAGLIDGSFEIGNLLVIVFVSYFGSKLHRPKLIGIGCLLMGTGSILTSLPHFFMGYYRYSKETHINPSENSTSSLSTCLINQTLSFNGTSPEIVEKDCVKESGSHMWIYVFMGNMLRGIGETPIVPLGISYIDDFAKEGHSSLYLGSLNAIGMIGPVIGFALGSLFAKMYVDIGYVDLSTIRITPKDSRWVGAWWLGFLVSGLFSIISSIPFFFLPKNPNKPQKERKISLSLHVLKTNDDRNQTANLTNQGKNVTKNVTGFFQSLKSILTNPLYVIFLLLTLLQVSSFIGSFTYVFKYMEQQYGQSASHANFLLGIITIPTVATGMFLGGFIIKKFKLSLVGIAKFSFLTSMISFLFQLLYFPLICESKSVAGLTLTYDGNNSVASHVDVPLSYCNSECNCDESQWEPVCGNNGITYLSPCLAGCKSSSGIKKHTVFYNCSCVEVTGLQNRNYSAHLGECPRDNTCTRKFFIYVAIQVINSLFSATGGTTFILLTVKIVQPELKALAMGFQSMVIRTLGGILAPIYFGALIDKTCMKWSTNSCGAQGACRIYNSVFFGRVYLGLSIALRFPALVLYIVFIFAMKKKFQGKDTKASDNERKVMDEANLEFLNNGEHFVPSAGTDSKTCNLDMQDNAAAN
To be noted: pH 7.4.

Protocol for human OATP1B1 (hOATP1B1): (§1) Cells for experiments were cultured in DMEM medium at 37° C. and 5% C02. Among them, DMEM medium contains 10% fetal calf serum, penicillin-streptomycin solution (100 U/mL and 0.1 mg/mL) and 0.5 mg/mL geneticin. Before the transfer experiment, cells were seeded in a 24-well plate at a density of 4×10^5 cells/well. The transfer experiment can be performed when the cell confluence reaches 80-90%.
(§2) The concentrations of substrates and positive inhibitors for each transporter are as follows.
(§3) Preparation of working solution: Use PBS to prepare a test substance stock solution with a concentration of 6 mM, and then dilute it with PBS in a gradient to 2000 μM, 1000 μM, 200 μM, 100 μM and 20 μM concentration working solution, and dilute the above working solutions of different concentrations to 20 μM, 10 μM, 2 μM, 1 μM and 0.2 μM concentration dosing solutions (Dosing Solution) respectively, so that the final concentrations of the test substance in the test system are 10 μM, 5 μM and 5 μM respectively. μM, 1 μM, 0.5 μM and 0.1 μM.
(§4) Pre-incubation of OATP1B1 and OATP1B3: Aspirate the culture medium from the culture plate, and wash the cells twice with 37° C. pre-warmed TB buffer (pH7.4), 0.5 mL each time. […] Among them, the NC group includes MOCK cells and each transporter cell, and the MOCK cell group is used to calculate the uptake ratio and passive transport amount. […]
Protocol for human OATP1B3 (hOATP1B3): as §1, §2, §3, §4

On to `CN(CC[C@H](N)CC(=O)N[C@H]1C=C[C@H](n2ccc(N)nc2=O)O[C@@H]1C(=O)O)C(=N)N` [BSD, Blasticidin], for which the “concentration that could kill all cultured cells” value in the data set on HepG2 cells came out at 2 µg/mL.

Consider `COc1ccc(C[C@H](N)C(=O)N[C@H]2[C@@H](O)[C@H](n3cnc4c(N(C)C)ncnc43)O[C@@H]2CO)cc1` [puromycin], for which the “concentration that could kill all cultured cells” value in the data set with Hela cells and in the data set with HepG2 cells was 1 µg/mL throughout. As for `CCCCC(=O)N(Cc1ccc(-c2ccccc2-c2nnn[nH]2)cc1)[C@H](C(=O)O)C(C)C` [valsartan], the figures for the “uptake ratio of drug substrate” value on human OATP1B1 (hOATP1B1) and on human OATP1B3 (hOATP1B3) were 3.25 and 6.90, respectively.
